From ChEMBL document CHEMBL1201862, “PubChem BioAssay data set” (2004)
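Where inhibition never reached the appropriate level, the endpoint shown equals the highest concentration tested. Otherwise, values were interpolated linearly from a five-concentration, 48-hour dose response in 96-well plates. GI50 = concentration required for 50% inhibition of growth.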 Calls of active or inactive are those of the source. Rule as the data show it: active = GI50 up to about 1.1 µM and inactive = higher.

Columns and labels:
Experiment in all cases: NCI anticancer screen, dose series, 48 h
[1] = test system: Malme-3M
[2] = test system: SR
[3] = test system: EKVX
[4] = test system: NCI/ADR-RES
[5] = test system: UACC-62
[6] = test system: RPMI-8226
[7] = test system: CCRF-CEM
[8] = test system: DU-145
[9] = test system: T47D
[10] = test system: SK-MEL-2
[11] = test system: 786-0
[12] = test system: TK-10
[13] = test system: UO-31
[14] = test system: MOLT-4
[15] = test system: HL-60
[16] = test system: U-251
[17] = test system: MDA-MB-435
[18] = test system: CAKI-1
[19] = test system: A549
[20] = test system: KM12
[21] = test system: MCF7
[22] = test system: Hs-578T
[23] = test system: NCI-H522
[24] = test system: NCI-H23
[25] = test system: SNB-19
[26] = test system: LOX IMVI
[27] = test system: HOP-92
[28] = test system: HT-29
[29] = test system: SF-295
[30] = test system: SW-620
[31] = test system: HOP-62
[32] = test system: MDA-N
[33] = test system: NCI-H226
[34] = test system: SN12C
[35] = test system: BT-549
[36] = test system: NCI-H460
[37] = test system: ACHN
[38] = test system: HCT-15
[39] = test system: SF-268
[40] = test system: UACC-257
[41] = test system: SK-OV-3
[42] = test system: PC-3
[43] = test system: SF-539
[44] = test system: K562
[45] = test system: COLO 205
[46] = test system: M14
[47] = test system: OVCAR-4
[48] = test system: IGROV-1
[49] = test system: RXF 393
[50] = test system: OVCAR-8
[51] = test system: OVCAR-3
[52] = test system: A498
[53] = test system: SNB-75
[54] = test system: OVCAR-5
[55] = test system: HCT-116
[56] = test system: SK-MEL-5
[57] = test system: SK-MEL-28
[58] = test system: MDA-MB-231
[59] = test system: HCC 2998

O=C1/C(=C/C=C/c2ccccc2)N=C(c2ccccc2)N1c1ccc(S(=O)(=O)Nc2nccs2)cc1
GI50 [1]: 32.7 µM (inactive)
GI50 [2]: 30.9 µM (inactive)
GI50 [3]: 26.3 µM (inactive)
GI50 [4]: > 100 µM (inactive)
GI50 [5]: 18.2 µM (inactive)
GI50 [6]: 21.9 µM (inactive)
GI50 [7]: 32.4 µM (inactive)
GI50 [8]: 37.8 µM (inactive)
GI50 [9]: 27.6 µM (inactive)
GI50 [10]: 25.1 µM (inactive)
GI50 [11]: 34.8 µM (inactive)
GI50 [12]: 30.8 µM (inactive)
GI50 [13]: 15.6 µM (inactive)
GI50 [14]: 50.1 µM (inactive)
GI50 [15]: 46.1 µM (inactive)
GI50 [16]: 17.9 µM (inactive)
GI50 [17]: 28.2 µM (inactive)
GI50 [18]: 65.9 µM (inactive)
GI50 [19]: 31.8 µM (inactive)
GI50 [20]: 26.5 µM (inactive)
GI50 [21]: 18.7 µM (inactive)
GI50 [22]: 37.8 µM (inactive)
GI50 [23]: 14.3 µM (inactive)
GI50 [24]: 21.3 µM (inactive)
GI50 [25]: 37.2 µM (inactive)
GI50 [26]: 21.8 µM (inactive)
GI50 [27]: 45.9 µM (inactive)
GI50 [28]: 23 µM (inactive)
GI50 [29]: 33.5 µM (inactive)
GI50 [30]: 35.1 µM (inactive)
GI50 [31]: 39.3 µM (inactive)
GI50 [32]: 27.7 µM (inactive)
GI50 [33]: 20 µM (inactive)
GI50 [34]: 30 µM (inactive)
GI50 [35]: 19.8 µM (inactive)
GI50 [36]: 25.8 µM (inactive)
GI50 [37]: 17.8 µM (inactive)
GI50 [38]: 24.4 µM
GI50 [39]: 14 µM (inactive)
GI50 [40]: 34.6 µM (inactive)
GI50 [41]: 28.1 µM (inactive)
GI50 [42]: 36.4 µM (inactive)
GI50 [43]: 20.8 µM (inactive)
GI50 [44]: 40.2 µM (inactive)
GI50 [45]: 18.8 µM (inactive)
GI50 [46]: 26.4 µM (inactive)
GI50 [47]: 30 µM (inactive)
GI50 [48]: 20.2 µM (inactive)
GI50 [49]: 13.2 µM (inactive)
GI50 [50]: 29.3 µM (inactive)
GI50 [51]: 21.1 µM (inactive)
GI50 [52]: 32.1 µM (inactive)
GI50 [53]: 45.1 µM (inactive)
GI50 [54]: 31.6 µM (inactive)
GI50 [55]: 29.6 µM (inactive)
GI50 [56]: 20.6 µM (inactive)

CN(C)CCn1c(=O)oc2cc(C(=O)CN3CCOCC3)ccc21
GI50 [1]: > 100 µM (inactive)
GI50 [2]: > 100 µM (inactive)
GI50 [3]: > 100 µM (inactive)
GI50 [4]: > 100 µM (inactive)
GI50 [5]: > 100 µM (inactive)
GI50 [6]: > 100 µM (inactive)
GI50 [7]: > 100 µM (inactive)
GI50 [8]: > 100 µM (inactive)
GI50 [10]: > 100 µM (inactive)
GI50 [11]: > 100 µM (inactive)
GI50 [57]: > 100 µM (inactive)
GI50 [12]: > 100 µM (inactive)
GI50 [13]: 88.1 µM (inactive)
GI50 [14]: > 100 µM (inactive)
GI50 [15]: > 100 µM (inactive)
GI50 [16]: > 100 µM (inactive)
GI50 [17]: > 100 µM (inactive)
GI50 [18]: > 100 µM (inactive)
GI50 [20]: > 100 µM (inactive)
GI50 [21]: > 100 µM (inactive)
GI50 [22]: > 100 µM (inactive)
GI50 [24]: > 100 µM (inactive)
GI50 [25]: > 100 µM (inactive)
GI50 [26]: > 100 µM (inactive)
GI50 [28]: > 100 µM (inactive)
GI50 [29]: > 100 µM (inactive)
GI50 [30]: > 100 µM (inactive)
GI50 [31]: > 100 µM (inactive)
GI50 [32]: > 100 µM (inactive)
GI50 [33]: > 100 µM (inactive)
GI50 [34]: > 100 µM (inactive)
GI50 [35]: > 100 µM (inactive)
GI50 [36]: > 100 µM (inactive)
GI50 [37]: > 100 µM (inactive)
GI50 [38]: > 100 µM
GI50 [39]: > 100 µM (inactive)
GI50 [40]: > 100 µM (inactive)
GI50 [41]: > 100 µM (inactive)
GI50 [42]: > 100 µM (inactive)
GI50 [43]: > 100 µM (inactive)
GI50 [44]: > 100 µM (inactive)
GI50 [45]: > 100 µM (inactive)
GI50 [46]: > 100 µM (inactive)
GI50 [58]: > 100 µM (inactive)
GI50 [48]: > 100 µM (inactive)
GI50 [49]: > 100 µM (inactive)
GI50 [50]: > 100 µM (inactive)
GI50 [51]: > 100 µM (inactive)
GI50 [53]: > 100 µM (inactive)
GI50 [54]: > 100 µM (inactive)
GI50 [55]: > 100 µM (inactive)
GI50 [56]: > 100 µM (inactive)

CC(C)/C(Cl)=N\OC(=O)Nc1cccc(F)c1
GI50 [1]: 6.24 µM (inactive)
GI50 [2]: 2.35 µM (inactive)
GI50 [3]: 16.7 µM (inactive)
GI50 [4]: 17.1 µM (inactive)
GI50 [5]: 20.4 µM (inactive)
GI50 [6]: 4.34 µM (inactive)
GI50 [7]: 1.9 µM (inactive)
GI50 [8]: 18.4 µM (inactive)
GI50 [9]: 24.8 µM (inactive)
GI50 [10]: 7.76 µM (inactive)
GI50 [11]: 16 µM (inactive)
GI50 [57]: 16.2 µM (inactive)
GI50 [12]: 14.8 µM (inactive)
GI50 [13]: 18.6 µM (inactive)
GI50 [14]: 2.28 µM (inactive)
GI50 [15]: 1.96 µM (inactive)
GI50 [16]: 17.2 µM (inactive)
GI50 [18]: 16 µM (inactive)
GI50 [19]: 17.5 µM (inactive)
GI50 [20]: 12.1 µM (inactive)
GI50 [21]: 11 µM (inactive)
GI50 [22]: 26.5 µM (inactive)
GI50 [23]: 1.49 µM (inactive)
GI50 [24]: 15.9 µM (inactive)
GI50 [25]: > 100 µM (inactive)
GI50 [26]: 2.14 µM (inactive)
GI50 [27]: 1.46 µM (inactive)
GI50 [28]: 18.3 µM (inactive)
GI50 [29]: 32.9 µM (inactive)
GI50 [30]: 2.23 µM (inactive)
GI50 [31]: > 31.6 µM (inactive)
GI50 [32]: 15.4 µM (inactive)
GI50 [33]: 17.2 µM (inactive)
GI50 [34]: 16.5 µM (inactive)
GI50 [35]: 2.66 µM (inactive)
GI50 [36]: 27.4 µM (inactive)
GI50 [37]: 14.6 µM (inactive)
GI50 [38]: 15.8 µM
GI50 [39]: 19.6 µM (inactive)
GI50 [40]: 15.8 µM (inactive)
GI50 [41]: 19.7 µM (inactive)
GI50 [42]: 16.4 µM (inactive)
GI50 [43]: 18.6 µM (inactive)
GI50 [44]: 2.19 µM (inactive)
GI50 [45]: 2.44 µM (inactive)
GI50 [46]: 0.933 µM (active)
GI50 [58]: 16.9 µM (inactive)
GI50 [47]: 11.7 µM (inactive)
GI50 [48]: 18.6 µM (inactive)
GI50 [49]: 17.1 µM (inactive)
GI50 [50]: 17 µM (inactive)
GI50 [51]: 17 µM (inactive)
GI50 [52]: 12.9 µM (inactive)
GI50 [59]: 19.3 µM (inactive)
GI50 [53]: 22.6 µM (inactive)
GI50 [54]: 17.7 µM (inactive)
GI50 [55]: 16.1 µM (inactive)
GI50 [56]: 15 µM (inactive)
